# According to US12195456B1, “Single molecules having mixed CDK4, CDK6, PLK1 targeting properties” (priority 2019, dated 2025):
# “Also recorded” adds a separate entry of the source.
# Assays:
# [1] = target: CDK4/cyclin D3 (Homo sapiens, UniProt P11802); assay: In vitro kinase assay, CDK4/cyclin D3; assay type: biochemical
# From the text: (§1) In vitro kinase profiling: To assess on-target and off-target kinase affinity and specificity of our lead inhibitor KP108 in a full kinome profiling, we will test the lead compound against Reaction Biology Corporation four panels (Wild Type. Panel (374 kinases), Mutant Panel (232 kinases), Atypical Panel (20 kinases), Lipid Panel (17 lipid kinases). This was outsourced to Reaction Biology Corporation, a biopharmaceutical company focused on the development of kinase inhibitors (http://www.reactionbiology.com/webapps/site/).
# [2] = target: CDK6/cyclin D3 (Homo sapiens, UniProt Q00534); assay: In vitro kinase assay, CDK6/cyclin D3; assay type: biochemical
# Sequence of CDK6/cyclin D3 (Q00534 whole entry): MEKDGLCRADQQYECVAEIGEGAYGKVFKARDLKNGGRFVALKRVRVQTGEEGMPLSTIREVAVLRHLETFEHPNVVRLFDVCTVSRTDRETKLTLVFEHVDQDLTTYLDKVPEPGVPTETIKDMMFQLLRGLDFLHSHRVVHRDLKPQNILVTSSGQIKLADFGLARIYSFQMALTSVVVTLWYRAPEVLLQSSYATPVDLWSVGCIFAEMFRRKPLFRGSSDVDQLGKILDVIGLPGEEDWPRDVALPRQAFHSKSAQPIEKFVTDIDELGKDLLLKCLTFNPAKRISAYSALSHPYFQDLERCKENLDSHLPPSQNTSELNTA
# Sequence of CDK6/cyclin D3 (P30281 whole entry partner): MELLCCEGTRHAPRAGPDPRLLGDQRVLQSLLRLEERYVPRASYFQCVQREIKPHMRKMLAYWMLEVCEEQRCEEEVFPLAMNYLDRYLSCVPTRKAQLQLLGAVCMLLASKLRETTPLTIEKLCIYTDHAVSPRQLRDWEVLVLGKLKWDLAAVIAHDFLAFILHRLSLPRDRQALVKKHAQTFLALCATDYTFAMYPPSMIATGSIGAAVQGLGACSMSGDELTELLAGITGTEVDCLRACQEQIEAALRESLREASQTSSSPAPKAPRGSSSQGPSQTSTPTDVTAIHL
# From the text: as §1
# [3] = system: panel of 50 different kinases; assay: Kinase profiling against a panel of 50 kinases at 100 nM; assay type: biochemical; details: 100 nM range, except PLK1
# From the text: (§2) As expected, at these high concentrations, the relative % of inhibition is saturated at nearly 100% for both CDK4 and CDK6. To validate CDK4/6 and PLK1 as functional KP108 targets, we then assessed CDK4-mediated Rb phosphorylation (Ser780) and PLK1-mediated autophosphorylation (Thr210) in vitro.
# (§3) […] This was outsourced to Reaction Biology Corporation, a biopharmaceutical company focused on the development of kinase inhibitors (http://www.reactionbiology.com/webapps/site/).
# [4] = target: Polo-like Kinase-1 (PLK1) (Homo sapiens, UniProt P53350); assay: Kinase profiling / inhibition of PLK1; assay type: biochemical; details: panel of 50 kinases
# Sequence of Polo-like Kinase-1 (PLK1) (P53350 whole entry): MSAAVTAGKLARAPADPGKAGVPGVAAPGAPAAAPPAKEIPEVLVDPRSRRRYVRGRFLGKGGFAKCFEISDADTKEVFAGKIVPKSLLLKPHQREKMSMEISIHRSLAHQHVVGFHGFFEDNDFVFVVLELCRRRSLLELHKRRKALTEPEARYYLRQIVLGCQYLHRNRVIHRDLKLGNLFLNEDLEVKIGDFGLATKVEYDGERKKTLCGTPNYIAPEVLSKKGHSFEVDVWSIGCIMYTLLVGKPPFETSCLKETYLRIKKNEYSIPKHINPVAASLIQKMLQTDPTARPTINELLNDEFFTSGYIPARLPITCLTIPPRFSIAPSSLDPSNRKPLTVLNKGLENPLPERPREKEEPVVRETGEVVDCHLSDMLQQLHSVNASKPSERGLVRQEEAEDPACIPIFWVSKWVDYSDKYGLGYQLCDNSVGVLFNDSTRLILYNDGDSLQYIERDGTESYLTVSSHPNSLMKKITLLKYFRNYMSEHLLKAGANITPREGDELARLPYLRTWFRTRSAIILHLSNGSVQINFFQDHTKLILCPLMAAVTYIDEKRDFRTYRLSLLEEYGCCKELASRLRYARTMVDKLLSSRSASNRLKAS
# From the text: as §2, §3
# [5] = system: PLK family members; assay: Effects on PLK family members; assay type: biochemical
# [6] = system: CDK4-mediated Rb phosphorylation (Ser780); assay: Immunoblotting of Rb phosphorylation in TNBC cells; assay type: cell-based
# From the text: as §2
# (§4) As PLK1 is overexpressed in 80% of metastatic breast cancers and the fact that it acts by blocking the G2-M phase of the cell cycle, this provides an attractive added value for KP108, further expanding its potential tumor growth inhibitory capacity.
# (§5) Western Blot After washing the infected cells with ice-cold PBS twice, 300 μL of ice-cold cell lysis buffer (1M Tris-HCl, 5M NaCl, 10% Triton, 100 mM EDTA, 100 mM Na3VO4, ×100 Protease Inhibitor, 10× Phosphatase Inhibitor) was added to the dish. All the adherent cells were scraped off the dish and the cell suspension were transferred to a microcentrifuge tube. The cell suspension was left to incubated on ice for 10 min and the cell lysate mixture was centrifuge at 12,000 RPM for 20 mins at 4° C. The supernatant was transferred to a new microcentrifuge tube on ice. The protein concentration was determined using the BCA Kit (ThermoFisher). The lysate samples were diluted in 5×SDS Buffer and were heated at 95° C. for 5 min. The ladder and the samples were loaded into the wells of a SDS PAGE gel and the gel was then run at 100V. […]
# [7] = system: PLK1-mediated autophosphorylation (Thr210); assay: Immunoblotting of PLK1 autophosphorylation in TNBC cells; assay type: cell-based
# From the text: as §2, §4, §5
# [8] = system: CSCs (tumorsphere formation); assay: Tumorsphere assay; assay type: cell-based; details: in vitro
# Protocol: Tumorsphere assays: Monolayer cells were enzymatically dissociated into single cells with trypsin-EDTA. Cells were plated at 10,000 cells per well in a 24-well low-attachment plate (Coming). Cells were grown for 7 days in DMEM/F12 supplemented with B27 (Invitrogen) in the presence of 10 ng/ml EGF and 10 ng/ml bFGF. Tumorsphere-forming efficiency was calculated as the number of spheres divided by the number of singles cells seeded, expressed as a percentage.
# [9] = system: SUM159 triple negative breast cancer cells; assay: ALDH+ cancer stem cell numbers (ALDEFLUOR, flow cytometry), SUM159; assay type: cell-based, human; details: TNBC (SUM159); equimolar concentrations vs existing CDK4/6 inhibitors
# Protocol: Flow cytometry was used to measure the ALDH+ CSC numbers, as previously described^6,11-13. […] As a result, KP108 was further selected as the first lead compound.
# ALDEFLUOR assay was performed as described in the manufacturer's protocol, 1×10^6 SUM159 cells were centrifuged and resuspended in 1 ml ALDH assay buffer. 5 μl substrate was added into the cell suspension. For negative control, 500 μl cell suspension were then transferred into a new tube containing 5 μl DEAB. Cells were then incubated for 40 min at 37° C. Percentage of ALDH+ cells were analyzed with Accuri C6 flow cytometer and Flowjo software.
# [10] = system: SKBR3 HER2+ breast cancer cells; assay: ALDH+ cancer stem cell numbers (ALDEFLUOR, flow cytometry), SKBR3; assay type: cell-based; details: equimolar concentrations vs existing CDK4/6 inhibitors
# [11] = system: SUM149 TNBC cells; assay: In vitro growth inhibition (SRB), SUM149; assay type: cell-based
# Protocol: (§6) In vitro growth inhibition assay: Growth inhibitory potency was evaluated using the SRB assay. Briefly, cells were plated in 96-well in triplicate and treated with drugs (0.0065 μM to 100 μM) 24 h after seeding. Following drug treatment, the cells were fixed using 50 μl of cold TCA (50%) for 1 h at 4° C., washed five times with tap water, and stained for 30 min at room temperature with SRB (0.4%) in acetic acid (0.5%). The plates were subsequently rinsed five times with acetic acid (1%) and allowed to air dry. The resulting purple residue was dissolved in Tris base (200 μl, 10 mM), and optical densities read on a ELx808 BioTek microplate reader. […] values were determined using the GraphPad Prism software.
# [12] = system: MDA-MB-231 TNBC cells; assay: In vitro growth inhibition (SRB), MDA-MB-231; assay type: cell-based
# Protocol: as §6
# [13] = system: Rb-deficient MDA-MB-438 cell line; assay: In vitro growth inhibition (SRB), Rb-deficient MDA-MB-438; assay type: cell-based
# Protocol: as §6
# [14] = system: prostate cancer cells; assay: In cellulo testing, prostate cancer; assay type: cell-based
# Protocol: (§7) Cell Culture: All the cell lines used were cultured at 37° C. in 5% CO2. HEK293T and MDA were maintained in Dulbecco's Modified Eagle Medium (DMEM) (Wisent Bio) with 10% fetal bovine serum (FBS) (Gibco). SUM159 was maintained in Ham's F-12 media with 5% FBS, 5 μg/mL insulin and 1 μg/mL hydrocortisone (Wisent Bio). HPAF-II was maintained in Eagle's Minimum Essential Medium (EMEM) (Wisent Bio) with 10% FBS. PC-3 was maintained in F-12K medium with 10% FBS.
# as §6
# [15] = system: pancreatic cancer cells; assay: In cellulo testing, pancreatic cancer; assay type: cell-based
# Protocol: as §7, §6
# [16] = system: cell lines representing different models of solid tumors (breast, prostate and pancreatic cancers); assay: Growth inhibition in cell lines representing different solid tumors; assay type: cell-based; details: all tumor types tested: breast
# Protocol: as §6
# [17] = system: MDA-MB-468 Rb-deficient TNBC cells; assay: Cell cycle progression, Rb-deficient TNBC cells; assay type: cell-based
# [18] = system: SUM159 Rb-positive TNBC cells; assay: Cell cycle progression, Rb-positive TNBC cells; assay type: cell-based, human
# [19] = system: Rb-positive SUM159 TNBC cells; assay: Apoptosis assay (AnnexinV/PI), SUM159; assay type: cell-based, human
# Protocol: (§8) Apoptosis assay: Apoptotic rates were analyzed and quantified by flow cytometry following AnnexinV/PI staining on SUM159 and MDA-MB-468 breast cancer cells.
# [20] = system: Rb-deficient MDA-MB-468 TNBC cells; assay: Apoptosis assay (AnnexinV/PI), MDA-MB-468; assay type: cell-based
# Protocol: as §8
# [21] = system: SUM159 lung metastasis; assay: Preclinical lung metastasis model (tail vein injection of TNBC cells); assay type: in vivo; details: NSG mice, daily I.P. 50 mg/kg for 2 weeks
# Protocol: To then functionally assess our lead in a preclinical model of tumor metastasis, immune-deficient non-obese diabetic scid gamma (NSG) mice were injected intravenously with 10^6 TNBC cells. […] Lungs were collected and stained with Bouin's solution and, the numbers of lung metastatic nodules were quantified. In vivo studies: All mice were housed and handled in accordance to the approved guidelines of the Canadian Council on Animal Care (CCAC) “Guide to the Care and Use of Experimental Animals” and under the conditions and procedures approved by the Animal Care Committee of McGill University (AUP #7497). The NSG mouse breeders were purchased from Jackson Laboratory (California, US). Female and male NSG mice between 7 and 9 weeks of age were bred and maintained in the animal facility of the Research Institute of the McGill University Health Center, as per the guidelines of the McGill University Animal Care Committee. Intravenous injection model: cells (1×106/each) were injected by tail vein route to develop lung metastases. The mice were euthanized with a maximum of 42-day (SUM159) post cancer cells injection. The lung tissues were counted for metastases nodules post Bouin's solution fixation.
# [22] = system: SUM159 TNBC xenografts; assay: Orthotopic SUM159 TNBC xenograft (mammary fat pad); assay type: in vivo, NSG mice
# Protocol: We further assessed our compound on breast cancer tumorigenesis in vivo, through orthotopic transplantation of SUM159 TNBC cells into the mammary fat pad of NSG mice. […] Drugs were administered through i.p. daily injections for two weeks (50 mg/kg) and tumor volumes were measured, as per our team optimized protocol^10,19.
# In vivo studies: All mice were housed and handled in accordance to the approved guidelines of the Canadian Council on Animal Care (CCAC) “Guide to the Care and Use of Experimental Animals” and under the conditions and procedures approved by the Animal Care Committee of McGill University (AUP #7497). The NSG mouse breeders were purchased from Jackson Laboratory (California, US). Female and male NSG mice between 7 and 9 weeks of age were bred and maintained in the animal facility of the Research Institute of the McGill University Health Center, as per the guidelines of the McGill University Animal Care Committee.
# Xenograft model: Human breast cancer cells, SUM159 (1×10^6/mouse) were diluted in 1:1 with Matrigel and then inoculated in 8-week old, female NSG mice by mammary fat pad route to generate breast cancer tumor. Tumor sizes were measured with a digital electronic caliper three times per week to reach maximum volume of 1000 mm3 prior to euthanasia. Tumor volumes were calculated according to the following formula: [4/3×π×(Length/2)×(Width/2)2] to generate a growth curve.
# Sequence of CDK4/cyclin D3 (P11802 whole entry): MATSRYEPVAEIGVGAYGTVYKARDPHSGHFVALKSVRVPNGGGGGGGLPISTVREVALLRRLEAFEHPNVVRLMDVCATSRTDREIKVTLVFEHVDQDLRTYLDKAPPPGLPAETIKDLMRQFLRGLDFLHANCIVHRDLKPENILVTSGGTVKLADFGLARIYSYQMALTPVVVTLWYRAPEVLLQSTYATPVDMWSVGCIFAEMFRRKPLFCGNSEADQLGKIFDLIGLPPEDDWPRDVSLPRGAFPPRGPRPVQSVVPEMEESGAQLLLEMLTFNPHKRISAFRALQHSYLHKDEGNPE
# Sequence of CDK4/cyclin D3 (P30281 whole entry partner): as the sequence (P30281 whole entry partner) above
compound,measurement,setting,value
"C=CC(=O)Nc1ccc(C(=O)N2CCN(c3ccc(Nc4ncc5c(C)c(C(C)=O)c(=O)n(C6CCCC6)c5n4)nc3)CC2)cc1 [KP108, N-(4-(4-(6-((6-acetyl-8-cyclopentyl-5-methyl-7-oxo-7,8-dihydropyrido[2,3-d]pyrimidin-2-yl)amino}pyridin-3-yl)piperazine-1-carbonyl)phenyl)acrylamide]",selectivity to CDK4 than CDK6,[1]; CDK4 vs CDK6,26 times
same,IC50,[1]; in vitro kinase assay,0.77 nM
same,"relative % of inhibition, CDK4","[1]; kinase panel, 100 nM range",~100%
same,IC50,[2]; in vitro kinase assay,20.4 nM
same,"relative % of inhibition, CDK6","[2]; kinase panel, 100 nM range",~100%
same,off-target cross-reactivity in kinase panel,[3],no or little cross-reactivity
same,inhibition of PLK1,[4],efficiently inhibit; also recorded: highlighting PLK1 as a potential KP108 target
same,effects on other PLK family members,[5],only targets PLK1
same,block of Rb phosphorylation (Ser780),[6],efficiently block phosphorylation
same,block of PLK1 autophosphorylation (Thr210),[7],efficiently block phosphorylation
same,reduction of tumorsphere formation,[8],superior efficacy in reducing tumorsphere formation
same,elimination of ALDH+ CSCs,[9],significant superior efficacy; also recorded: nearly maximal efficacy
same,elimination of ALDH+ CSCs,[10],significant superior efficacy; also recorded: nearly maximal efficacy
same,activity in cellulo,[11],great activity in cellulo
same,activity in cellulo,[12],great activity in cellulo
same,activity in cellulo,[13],great activity in cellulo
same,activity in cellulo,[14],very active
same,activity in cellulo,[15],very active
same,IC50 compared with palbociclib,[16],lower IC50in all tumor types tested
same,effect on cell cycle progression,[17],efficiently induce G2 arrest; also recorded: dose-dependent increase in the G2 phase
same,effect on cell cycle progression,[18],induce G1 arrest
same,pro-apoptotic effect,[19],significant pro-apoptotic effect
same,pro-apoptotic effect,[20],significant pro-apoptotic effect; also recorded: almost complete cell death
same,lung colonization / lung metastatic nodules,[21],"great efficacy and sustained activity; also recorded: significantly prevented, to almost completely block lung colonization"
same,primary tumor development (tumor volume),"[22]; NSG mice, i.p. daily for two weeks, 50 mg/kg",great efficacy and sustained activity; also recorded: great efficacy in preventing primary tumor development
same,tumor growth once injections were stopped,[22]; after end of the two-week 50 mg/kg i.p. treatment,"growth inhibitory effects sustained over time, even once injections were stopped"
same,animal health / weight,"[22]; treated mice, 50 mg/kg i.p. daily",did not affected animal health
